Read-outs that look alike come from different tables or passages of the source.
Experiments:
[1] = test system: human pulmonary arterial smooth muscle cells from patients with idiopathic pulmonary arterial hypertension (IPAH HPASMC); test: IPAH HPASMC proliferation assay; type: cell-based; settings: for inhibition at 1 µM: Homo sapiens; for inhibition at 1 µM / effect on proliferation (in words) / inhibition of proliferation normalized to FBS-induced growth / effect of combined treatment versus single agents (in words): IPAH HPASMC; for effect on proliferation (in words): concentrations up to 1 uM
Procedure: (§1) Primary cultures of human pulmonary arterial smooth muscle cells were derived from distal blood vessels taken from lungs harvested from patients with idiopathic pulmonary arterial hypertension (IPAH) who had been treated with iloprost or a combination of epoprostenol and bosentan for at least 1.4 years. Cells were cultured for 24 hours in 6-well plates in a solution of human smooth muscle basal medium (SMBM; TCS Cellworks, UK) with 9% fetal bovine serum (FBS; Invitrogen, US) and penicillin-streptomycin (PenStrep; 50 units/mL; Invitrogen, US). The incubating solution was then changed to PenStrep in SMBM and the cells were allowed to incubate for another 48 hours. Test compounds were administered to the test wells as DMSO solutions with FBS (FBS and DMSO or SMBM were administered to the control wells). After 96 hours of incubation, the cells were trypsinized (0.05% trypsin/EDTA; Invitrogen, US) and 20 uL of cell suspension was added to 20 uL of Accustain solution T and Accustain solution N (Labtech, UK). The cells were counted and their viability assessed using an ADAM Automated Cell Counter (Digital Bio, Korea). Results were expressed in cell number per mL and percent growth compared to FBS-induced growth alone.

[2] = test system: human pulmonary arterial smooth muscle cells from healthy patients (normal HPASMC); test: Normal HPASMC proliferation assay; type: cell-based; settings: for inhibition at 1 µM: Homo sapiens, read-out: inhibition of proliferation normalized to FBS-induced growth; for effect on proliferation (in words): normal HPASMC, 1 pM to 1 uM
Procedure: as §1
As a control, primary cultures of human pulmonary arterial smooth muscle cells were derived from distal blood vessels taken from lungs harvested from healthy patients according to procedure described in Example 1. Treprostinil sodium was tested in these cells under the conditions described in Example 1 at concentrations of 1 pM, 10 pM, 100 pM, 1 nM, 10 nM, 100 nM, and 1 uM. The experiment was repeated four times and the results were averaged.

[3] = Fibroblast proliferation assay; type: cell-based, human; settings: Homo sapiens, Fibroblast, read-out: inhibition of proliferation normalized to FBS-induced growth
Procedure: as §1
(§2) Using the procedure described in Example 1, primary cultures of human lung fibroblasts were derived from lungs harvested from patients with ideopathic pulmonary fibrosis (IPF) with secondary pulmonary arterial hypertension (PAH) who had previously been treated with epoprostenol, bosentan, and/or steroids. Treprostinil sodium was tested in these cells under the conditions described in Example 1 at concentrations of 1 pM, 10 pM, 100 pM, 1 nM, 10 nM, 100 nM, and 1 uM. The experiment was repeated four times and the results were averaged.

[4] = test system: human lung fibroblasts from patients with ideopathic pulmonary fibrosis (IPF) with secondary pulmonary arterial hypertension (PAH); test: Fibroblast proliferation assay; type: cell-based; settings: for effect on proliferation (in words): lung fibroblasts from IPF patients with secondary PAH, 1 pM to 1 uM
Procedure: as §1, §2

[5] = 1 uM test compound, 96 hours incubation, cell count, read-out: inhibition of proliferation normalized to FBS-induced growth
[6] = 1 uM test compound, 96 hours incubation, cell count

CCCC[C@@H](NC(=O)[C@@H](Cc1cn(C(=O)OC)c2ccccc12)NC(=O)[C@H](CC(C)(C)C)NC(=O)N1[C@H](C)CCC[C@@H]1C)C(=O)O [BQ788, reference compound]
inhibition at 1 µM [1, 5]: ~20% | effect on proliferation (in words) [1]: inhibited proliferation of IPAH cells at higher concentrations

Cc1ccc(C(=O)N(CCCN)[C@@H](c2oc3cc(Cl)ccc3c(=O)c2Cc2ccccc2)C(C)C)cc1 [Compound A, N-(3-Aminopropyl)-N-[(R)-(1-3-benzyl-7-chloro-4-oxo-4H-chromen-2-yl)-2-methyl-propyl]-4-methyl-benzamide]
inhibition of proliferation normalized to FBS-induced growth [1, 6]: approximately 70% | effect on proliferation (in words) [1]: inhibited proliferation of IPAH cells in a dose dependent manner

CC(C)Oc1ccc(C(=O)N[C@H](CNC(=O)CN(C)C)Cc2ccc(-c3cn4cccc([C@H](C)O)c4n3)cc2)cc1Cl [Compound B, 3-Chloro-N-{(1S)-2-[(N,N-dimethylglycyl)amino]-1-[(4-{8-[(1S)-1-hydroxyethyl]imidazo[1,2-c]pyridin-2-yl}phenyl)methyl]ethyl}-4-[(1-methylethyl)oxy]benzamide]
inhibition of proliferation normalized to FBS-induced growth [1, 6]: approximately 95% | effect on proliferation (in words) [1]: inhibited proliferation of IPAH cells in a dose dependent manner

COC(c1ccccc1)(c1ccccc1)[C@H](Oc1nc(C)cc(C)n1)C(=O)O [ambrisentan, reference compound]
inhibition at 1 µM [1, 5]: ~25%

COc1ccccc1Oc1c(NS(=O)(=O)c2ccc(C(C)(C)C)cc2)nc(-c2ncccn2)nc1OCCO [bosentan, reference compound]
inhibition at 1 µM [1, 5]: ~20% | effect on proliferation (in words) [1]: inhibited proliferation of IPAH HPASMC cells at higher concentrations

CC#CCC(C)[C@H](O)/C=C/[C@@H]1[C@H]2C/C(=C/CCCC(=O)O)C[C@H]2C[C@H]1O (stereo partly drawn) [iloprost, reference compound]
inhibition at 1 µM [1, 5]: ~40% | effect on proliferation (in words) [1]: inhibited proliferation of IPAH HPASMC cells in a dose dependent manner

CS(=O)(=O)O.Cc1ccc(C(=O)N(CCCN)[C@@H](c2nc3cc(Cl)ccc3c(=O)n2Cc2ccccc2)C(C)C)cc1 [ispinesib mesylate, N-(3-aminopropyl)-N-[(1R)-1-(3-benzyl-7-chloro-4-oxo-3,4-dihydroquinazolin-2-yl)-2-methylpropyl]-4-methylbenzamide monomethanesulfonate]
inhibition at 1 µM [2]: ~55% | effect on proliferation (in words) [2]: inhibited proliferation of fibroblasts in a dose dependent manner | potency compared with treprostinil sodium (in words) ([2]; normal HPASMCs): slightly more potent than treprostinil sodium | inhibition at 1 µM ([1]; 96 h, read-out: inhibition of proliferation normalized to FBS-induced growth, 1 uM test compound, 96 hours incubation, cell count): ~80% | inhibition at 1 µM ([1]; read-out: inhibition of proliferation normalized to FBS-induced growth, combination, 1 uM ispinesib mesylate and 10 nM treprostinil sodium): ~90% | inhibition at 1 µM ([1]; read-out: inhibition of proliferation normalized to FBS-induced growth, combination, 1 uM ispinesib mesylate and 100 nM BQ788): ~75% | inhibition at 1 µM ([1]; read-out: inhibition of proliferation normalized to FBS-induced growth, combination, 1 uM ispinesib mesylate and 100 nM ambrisentan): ~80% | inhibition at 1 µM ([1]; read-out: inhibition of proliferation normalized to FBS-induced growth, combination, 1 uM ispinesib mesylate and 100 nM bosentan): ~99% | inhibition at 1 µM ([1]; read-out: inhibition of proliferation normalized to FBS-induced growth, combination, 1 uM ispinesib mesylate, 100 nM ambrisentan and 100 nM BQ788): ~95% | effect on proliferation (in words) [1]: inhibited proliferation of IPAH cells in a dose dependent manner | potency in IPAH HPASMCs and fibroblasts compared with normal HPASMCs (in words) ([1]; comparison of Examples 9, 16 and 18): significantly more potent at inhibiting proliferation of IPAH HPASMCs and fibroblasts than normal HPASMCs | effect of combined treatment versus single agents (in words) ([1]; ispinesib mesylate (1 pM to 1 uM) with 10 nM treprostinil sodium): enhanced the antiproliferative effects of either agent alone | effect of combined treatment versus single agents (in words) ([1]; ispinesib mesylate (1 pM to 1 uM) with 100 nM bosentan): enhanced the antiproliferative effects of either agent alone | inhibition at 1 µM [3]: ~75% | potency compared with treprostinil sodium (in words) ([4]; lung fibroblasts derived from IPF patients with secondary PAH): significantly more potent than treprostinil sodium | effect on proliferation (in words) [4]: inhibited proliferation of fibroblasts in a dose dependent manner

CCCCC[C@H](O)CC[C@@H]1[C@H]2Cc3cccc(OCC(=O)O)c3C[C@H]2C[C@H]1O [treprostinil sodium, reference compound]
inhibition at 1 µM ([2]; 1 uM test compound, normal HPASMC from healthy patients): ~35% | effect on proliferation (in words) [2]: inhibited normal HPASMC proliferation at higher concentrations | inhibition at 1 µM [1, 5]: ~60% | effect on proliferation (in words) [1]: inhibited proliferation of IPAH HPASMC cells in a dose dependent manner | inhibition at 1 µM ([3]; 1 uM test compound, lung fibroblasts from IPF patients with secondary PAH): ~45% | effect on proliferation (in words) [4]: inhibited proliferation of fibroblasts at higher concentrations
